According to patent US20150065440A1 (Progen Pharmaceuticals Limited, priority 2007, published 2015):

How the values were obtained:
[1] = biological target: T1, VEGF (Homo sapiens, UniProt P15692); assay: Growth factor binding assay (SPR solution affinity), VEGF; conditions: HBS-EP buffer, 25° C.
T1 sequence (P15692 207-395): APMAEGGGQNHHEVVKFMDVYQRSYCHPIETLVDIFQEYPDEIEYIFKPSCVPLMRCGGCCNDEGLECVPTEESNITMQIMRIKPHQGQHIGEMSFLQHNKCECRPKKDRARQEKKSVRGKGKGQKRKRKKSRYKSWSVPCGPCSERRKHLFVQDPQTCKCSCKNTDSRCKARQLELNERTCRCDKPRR
In short: (§1)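 Kd measured by SPR solution affinity: fixed growth factor with varying ligand competing for heparin-coated sensorchip, 25 °C. Buffer HBS-EP pH 7.4 (150 mM NaCl) for FGF-1 and VEGF; FGF-2 with 0.3 M NaCl. Duplicate values averaged.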

[2] = biological target: FGF-1 (Homo sapiens, UniProt P05230); assay: Growth factor binding assay (SPR solution affinity), FGF-1; conditions: SPR, HBS-EP buffer, 25° C.; read-out: Kd FGF-1
[3] = biological target: T2, recombinant human heparanase (Homo sapiens, UniProt Q9Y251); assay: Heparanase inhibition assay (fondaparinux cleavage, WST-1); conditions: read-out: Ki Heparanase; IC50 converted into Ki; fondaparinux 100 μM, pH 5.0
T2 sequence (Q9Y251 158-543 limits assumed): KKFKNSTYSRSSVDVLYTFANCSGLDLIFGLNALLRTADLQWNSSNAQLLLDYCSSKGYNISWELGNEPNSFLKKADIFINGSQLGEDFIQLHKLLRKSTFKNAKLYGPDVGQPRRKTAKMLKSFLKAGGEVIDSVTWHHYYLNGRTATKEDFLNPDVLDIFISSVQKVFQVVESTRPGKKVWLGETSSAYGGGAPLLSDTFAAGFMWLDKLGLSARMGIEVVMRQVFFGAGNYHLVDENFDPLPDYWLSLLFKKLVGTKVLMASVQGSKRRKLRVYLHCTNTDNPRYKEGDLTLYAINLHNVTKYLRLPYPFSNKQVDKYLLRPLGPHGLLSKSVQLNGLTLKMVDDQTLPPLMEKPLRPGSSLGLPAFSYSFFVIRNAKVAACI
T2 sequence (Q9Y251 36-109 limits assumed): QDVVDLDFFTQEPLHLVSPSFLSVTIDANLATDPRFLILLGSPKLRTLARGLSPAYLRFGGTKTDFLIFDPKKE

[4] = biological target: FGF-2 (Homo sapiens, UniProt P09038); assay: Growth factor binding assay (SPR solution affinity), FGF-2; conditions: SPR, HBS-EP buffer containing 0.3 M NaCl, 25° C.; read-out: Kd FGF-2
In short: as §1

[5] = tested on: HSV-1; assay: Anti-HSV screening assay (viral plaques), HSV-1; type: cell-based; conditions: 100 μg/mL, viral plaques relative to mock treated controls
Experimental: (§2) African green monkey kidney (GMK AH1) cells^46 were cultured in Eagle's minimum essential medium (EMEM) supplemented with 2% calf serum, 0.05% Primaton RL substance (Kraft Inc., Norwich, USA) and antibiotics. Human epidermoid carcinoma (HEp-2) cells were cultured in Dulbecco's modified EMEM (DMEM) supplemented with 10% fetal calf serum and antibiotics. […] The RSV strain A-2^50 was used. The RSV stock was prepared as described by Hallak et al.^51 and stored at −70° C. in the presence of 40% sucrose^52.
(§3) The viral infectivity (the plaque number-reduction) assay and the plaque size-reduction assay were carried out as described previously^17. […] Subsequently, the cells were washed with 2 mL of EMEM and overlaid with 1% methylcellulose solution in EMEM. The plaques were visualized by staining with crystal violet solution after 2 (HSV-2) or 3 (HSV-1) days of incubation at 37° C. […] When the compounds were screened for anti-HSV or anti-RSV activity, mixtures of 200 PFU of the virus and the test compound (100 μg/mL) in serum-free EMEM were incubated for 10 min at room temperature before addition to cells and during the entire period of viral infection of cells and the development of viral plaques. In the plaque size-reduction assay, the compounds were added to cells (in methylcellulose overlay medium) after 2 h period of virus infection of cells in the absence of the inhibitor. After 2-3 days of incubation at 37° C., the viral plaques were visualized by staining the cells with 1% solution of crystal violet. For each compound tested, the images of twenty neighboring plaques were captured using a Leica DC300 digital camera attached to a Leitz-Wetzlar Diavert microscope. The area of each plaque was determined using IM500 image software (Leica). Similar protocols were used for RSV, except that the assays were performed in HEp-2 cells and DMEM supplemented with 2% heat-inactivated fetal calf serum was used instead of EMEM.

[6] = tested on: RSV; assay: Anti-RSV screening assay (viral plaques); type: cell-based; conditions: 100 μg/mL, viral plaques relative to mock treated controls
Experimental: as §2, §3

[7] = tested on: HSV-2; assay: Anti-HSV screening assay (viral plaques), HSV-2; type: cell-based; conditions: 100 μg/mL, viral plaques relative to mock treated controls
Experimental: as §2, §3

[8] = tested on: HSV-2; assay: Viral plaque number-reduction assay, HSV-2; conditions: GMK AH1 cells
Experimental: as §2, §3

[9] = tested on: GMK AH1 cells; assay: Cytotoxicity assay, GMK AH1; type: cell-based, African green monkey; conditions: cell viability reduced by 50%
Experimental: The assay was performed in GMK AH1 cells that had been seeded in 96 well cluster plates and reached approximately 80-90% confluence at day 2 of culture. The cells were washed with EMEM and incubated for 24 h at 37° C. with 100 μL of serial two-fold dilutions of the test compound in serum-free EMEM. The effect of the test compound on cell viability was measured by using the tetrazolium-based CellTiter96 assay according to the manufacturer's protocol (Promega, Madison, Wis., USA).

[10] = tested on: HSV-1; assay: Viral plaque number-reduction assay, HSV-1; conditions: GMK AH1 cells
Experimental: as §2, §3

Sequence of FGF-1 (P05230 whole entry, species assumed): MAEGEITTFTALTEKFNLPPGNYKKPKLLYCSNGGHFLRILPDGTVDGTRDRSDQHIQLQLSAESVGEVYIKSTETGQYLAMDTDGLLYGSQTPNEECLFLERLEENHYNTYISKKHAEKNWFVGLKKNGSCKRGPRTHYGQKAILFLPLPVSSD
Sequence of FGF-2 (P09038 143-288, species assumed): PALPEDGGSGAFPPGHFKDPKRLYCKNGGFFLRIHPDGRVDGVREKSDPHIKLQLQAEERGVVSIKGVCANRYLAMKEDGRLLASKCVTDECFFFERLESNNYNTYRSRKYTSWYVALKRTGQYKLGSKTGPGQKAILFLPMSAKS

SMILES | Kd [1] | Kd [2] | Ki [3] | Kd [4] | Residual infectivity (%) HSV-1 [5] | Residual infectivity (%) RSV [6] | Residual infectivity (%) HSV-2 [7] | Selective index CC50/IC50 HSV-2 [8] | Cytotoxicity CC50 GMK AH1 [9] | Selective index CC50/IC50 HSV-1 [10]
O=S(=O)(O)OCC1OC(OC2C(OCCCCCCCCCCCCn3cc(-c4ccccc4)nn3)OC(COS(=O)(=O)O)C(OS(=O)(=O)O)C2OS(=O)(=O)O)C(OS(=O)(=O)O)C(OC2OC(COS(=O)(=O)O)C(OS(=O)(=O)O)C(OC3OC(COS(=O)(=O)O)C(OS(=O)(=O)O)C(OC4OC(COS(=O)(=O)O)C(OS(=O)(=O)O)C(OS(=O)(=O)O)C4OS(=O)(=O)O)C3OS(=O)(=O)O)C2OS(=O)(=O)O)C1OS(=O)(=O)O [Compound 8, 12-(4-Phenyl-[1,2,3]triazol-1-yl)dodecyl 2,3,4,6-tetra-O-sodium sulfonato-α-D-mannopyranosyl-(1→3)-2,4,6-tri-O-sodium sulfonato-α-D-mannopyranosyl-(1→3)-2,4,6-tri-O-sodium sulfonato-α-D-mannopyranosyl-(1→3)-2,4,6-tri-O-sodium sulfonato-α-D-mannopyranosyl-(1→2)-3,4,6-tri-O-sodium sulfonato-α-D-mannopyranoside] | 5.1 ± 1.8 nM | 2.3 ± 1.3 nM | 3.5 ± 0.4 nM | 253 ± 25 nM | 7% | 3% | 0.2% |  |  | 
O=S(=O)(O)OCC1OC(OC2C(OCCCCCCCCCCCCn3cc(-c4cccc5ccccc45)nn3)OC(COS(=O)(=O)O)C(OS(=O)(=O)O)C2OS(=O)(=O)O)C(OS(=O)(=O)O)C(OC2OC(COS(=O)(=O)O)C(OS(=O)(=O)O)C(OC3OC(COS(=O)(=O)O)C(OS(=O)(=O)O)C(OC4OC(COS(=O)(=O)O)C(OS(=O)(=O)O)C(OS(=O)(=O)O)C4OS(=O)(=O)O)C3OS(=O)(=O)O)C2OS(=O)(=O)O)C1OS(=O)(=O)O [Compound 11, 12-(4-Naphthalen-1-yl-[1,2,3]triazol-1-yl)dodecyl 2,3,4,6-tetra-O-sodium sulfonato-α-D-mannopyranosyl-(1→3)-2,4,6-tri-O-sodium sulfonato-α-D-mannopyranosyl-(1→3)-2,4,6-tri-O-sodium sulfonato-α-D-mannopyranosyl-(1→3)-2,4,6-tri-O-sodium sulfonato-α-D-mannopyranosyl-(1→2)-3,4,6-tri-O-sodium sulfonato-α-D-mannopyranoside] | 0.79 ± 0.24 nM | 0.19 ± 0.1 nM | 4.8 ± 1.8 nM | 73 ± 23 nM | 0% | 0% | 0% | > 444 | >400 µg/mL | > 222
